We go through 26 compounds from patent publication US20260226056A1, “SUBSTITUTED 1H-PYRAZOLE-4-CARBOXAMIDES AS SARM1 INHIBITORS” (DISARM THERAPEUTICS, INC., priority 2023, published 2026).

pIC50: −log10 of the molar value.

The test addresses T1, hSARM1 (Homo sapiens, UniProt Q6SZW1).
T1 construct: This assay makes use of full length SARM1, which encompasses the ARM, SAM and TIR domains; made in house; host or cells: NRK1-HEK293T cells (transient transfection; cleared lysate used as enzyme)
T1 sequence (Q6SZW1 28-724): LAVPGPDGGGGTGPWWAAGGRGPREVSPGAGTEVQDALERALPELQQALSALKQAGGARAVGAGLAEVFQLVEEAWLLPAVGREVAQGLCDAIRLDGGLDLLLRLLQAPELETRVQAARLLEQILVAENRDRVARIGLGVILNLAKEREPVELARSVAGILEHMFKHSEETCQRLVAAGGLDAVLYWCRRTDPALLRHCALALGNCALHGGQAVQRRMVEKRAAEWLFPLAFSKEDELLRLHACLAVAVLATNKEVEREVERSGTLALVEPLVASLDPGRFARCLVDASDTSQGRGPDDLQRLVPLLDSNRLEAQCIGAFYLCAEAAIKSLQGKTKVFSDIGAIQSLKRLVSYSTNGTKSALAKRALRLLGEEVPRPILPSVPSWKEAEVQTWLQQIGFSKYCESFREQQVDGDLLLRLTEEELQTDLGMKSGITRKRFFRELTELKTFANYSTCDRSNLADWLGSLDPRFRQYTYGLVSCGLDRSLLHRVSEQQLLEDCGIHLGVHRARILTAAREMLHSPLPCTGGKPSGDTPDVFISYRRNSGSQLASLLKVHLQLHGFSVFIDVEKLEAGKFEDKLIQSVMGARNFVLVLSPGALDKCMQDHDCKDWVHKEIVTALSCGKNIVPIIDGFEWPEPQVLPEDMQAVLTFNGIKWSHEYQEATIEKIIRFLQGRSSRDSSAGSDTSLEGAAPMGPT
Nature of the test: ARM-SAM-TIR SARM1 IC50 Assay (NADase activity, NAD+ cleavage, RapidFire MS). The format is biochemical. The conditions noted are these: ARM-SAM-TIR lysate 5 μg/mL, 2 hrs. pre-incubation with compound, 5 μM NAD+, 2 hrs. incubation. The protocol: This describes an assay of ARM-SAM-TIR NADase activity and use of this assay to measure the efficacy of compounds of the present invention to block SARM1 mediated NAD+ cleavage. This assay was optimized in such a way as to characterize the efficacy of the compounds of the present invention to inhibit SARM1 activity and to calculate an IC50 value for each compound. This assay makes use of full length SARM1, which encompasses the ARM, SAM and TIR domains.
NRK1-HEK293T cells were seeded onto 150 cm^2 plates at 20×10^6 cells per plate. The next day, the cells were transfected with 15 μg ARM-SAM-TIR expression plasmid (SEQ ID NO: 1 as disclosed in WO 2019/236879, Pages 77-81; Paragraph) [0310]).
The cultures were supplemented with 1 mM NR at time of transfection to minimize toxicity from ARM-SAM-TIR overexpression. Forty-eight hours after transfection, cells were harvested, pelleted by centrifugation at 1,000 rpm (Sorvall ST 16R centrifuge, Thermo Fisher), and washed once with cold PBS (0.01 M phosphate buffered saline NaCl 0.138 M; KCl 0.0027 M; pH 7.4). The cells were resuspended in PBS with protease inhibitors (Complete™ protease inhibitor cocktail, Roche product #11873580001) and cell lysates were prepared by sonication (Branson Sonifer 450, output=3, 20 episodes of stroke). The lysates were centrifuged (12,000×g for 10 min at 4° C.) to remove cell debris and the supernatants (containing ARM-SAM-TIR protein) were stored at −80° C. for later use in the in vitro ARM-SAM-TIR NADase assay (see below). Protein concentration was determined by the Bicinchoninic (BCA) method and used to normalize lysate concentrations.
The enzymatic assay was performed in a 384-well polypropylene plate in Dulbecco's PBS buffer in a final assay volume of 20 μL. ARM-SAM-TIR lysate with a final concentration of 5 μg/mL was pre-incubated with the respective compound at 1% DMSO final assay concentration over 2 hrs. at room temperature. The reaction was initiated by addition of 5 μM final assay concentration of NAD+ as substrate. After a 2 hrs. ambient temperature incubation, the reaction was terminated with 40 μL of stop solution of 7.5% trichloroacetic acid in acetonitrile. The NAD+ and ADPR concentrations were analyzed by a RapidFire High Throughput Mass Spectrometry System (Agilent Technologies, Santa Clara, CA) using an API4000 triple quadrupole mass spectrometer (AB Sciex Framingham, MA).
Compounds having an activity designated as “A” provided an IC50<50 nM; compounds having an activity designated as “B” provided an IC50 51-100 nM; compounds having an activity designated as “C” provided an IC50 101-500 nM; compounds having an activity designated as “D” provided an IC50 501-1000 nM; compounds having an activity designated as “E” provided an IC50>1000 nM.
As a reminder, the pIC50 is the IC50 on a negative log10 scale, so that one unit is a factor of ten. In the case of `O=C(CCc1ccc(Cl)nc1)Nc1[nH]nc2c1c(=O)[nH]c1cnccc12` [Example 1, 3-(6-Chloropyridin-3-yl)-N-(4-oxo-4,5-dihydro-2H-pyrazolo[4,3-c][1,7]naphthyridin-3-yl)propanamide], the pIC50 was 6.30 to 7.00.
Take `O=C(CCc1ccc(F)nc1)Nc1[nH]nc2c1c(=O)[nH]c1cnccc12` [Example 2, 3-(6-Fluoropyridin-3-y1)-N-(4-oxo-4,5-dihydro-2H-pyrazolo[4,3-c][1,7]naphthyridin-3-yl)propanamide]: the pIC50 was 6.30 to 7.00.
Take `O=C(CCc1ccc(Cl)cc1)Nc1[nH]nc2c1c(=O)[nH]c1cnccc12` [Example 3, 3-(4-Chlorophenyl)-N-(4-oxo-4,5-dihydro-2H-pyrazolo[4,3-c][1,7]naphthyridin-3-yl)propanamide]: the negative logarithm of the IC50 (pIC50) is over 7.30.
`O=C(CCc1ccc(Cl)c(F)c1)Nc1[nH]nc2c1c(=O)[nH]c1cnccc12` [Example 4, 3-(4-Chloro-3-fluorophenyl)-N-(4-oxo-4,5-dihydro-2H-pyrazolo[4,3-c][1,7]naphthyridin-3-yl)propanamide]: the pIC50 is over 7.30.
On to `O=C(CCc1cnc(Cl)c(F)c1)Nc1[nH]nc2c1c(=O)[nH]c1cnccc12` [Example 5, 3-(6-Chloro-5-fluoro-3-pyridyl)-N-(4-oxo-2,5-dihydropyrazolo[4,3-c][1,7]naphthyridin-3-y1)propanamide], for which the pIC50 is 7.00 to 7.29.
Next, `O=C(CCc1ccc(F)c(F)c1)Nc1[nH]nc2c1c(=O)[nH]c1cnccc12` [Example 6, 3-(3,4-Difluorophenyl)-N-(4-oxo-4,5-dihydro-2H-pyrazolo[4,3-c][1,7]naphthyridin-3-yl)propanamide]: over 7.30; `NC(=O)c1c(-c2ccncc2)n[nH]c1NC(=O)CCc1ccc(Cl)c(Cl)c1` [Example 7, 5-(3-(3,4-Dichlorophenyl)propanamido)-3-(pyridin-4-yl)-1H-pyrazole-4-carboxamide]: 7.00 to 7.29.
With `NC(=O)c1c(-c2ccncc2)n[nH]c1NC(=O)CCc1ccc(F)c(F)c1` [Example 8, 5-(3-(3,4-Difluorophenyl)propanamido)-3-(pyridin-4-y1)-1H-pyrazole-4-carboxamide], the pIC50 is 6.30 to 7.00.
`NC(=O)c1c(-c2ccncc2)n[nH]c1NC(=O)CCc1ccc(Cl)nc1` [Example 9, 5-(3-(6-Chloropyridin-3-yl)propanamido)-3-(pyridin-4-y1)-1H-pyrazole-4-carboxamide]: the negative logarithm of the IC50 (pIC50) was 6.30 to 7.00.
The figure for `NC(=O)c1c(-c2ccncc2)n[nH]c1NC(=O)CCc1ccc(F)cc1` [Example 10, 5-(3-(4-Fluorophenyl)propanamido)-3-(pyridin-4-yl)-1H-pyrazole-4-carboxamide] is 6.30 to 7.00; for `NC(=O)c1c(-c2ccncc2)n[nH]c1NC(=O)CCc1cc(F)cc(F)c1` [Example 11, 5-(3-(3,5-Difluorophenyl)propanamido)-3-(pyridin-4-y1)-1H-pyrazole-4-carboxamide-] it is 6.00 to 6.30; for `NC(=O)c1c(-c2ccncc2)n[nH]c1NC(=O)CCc1cnc(Cl)c(F)c1` [Example 12, 5-(3-(6-Chloro-5-fluoropyridin-3-yl)propanamido)-3-(pyridin-4-yl)-1H-pyrazole-4-carboxamide] it is 6.30 to 7.00.
Next, `NC(=O)c1c(-c2ccncc2)n[nH]c1NC(=O)CCc1ccc(Cl)cc1` [Example 13, 5-(3-(4-Chlorophenyl)propanamido)-3-(pyridin-4-yl)-1H-pyrazole-4-carboxamide]: over 7.30; `NC(=O)c1c(-c2ccncc2)n[nH]c1NC(=O)CCc1ccc(Cl)c(F)c1` [Example 14, 5-(3-(4-Chloro-3-fluorophenyl)propanamido)-3-(pyridin-4-yl)-1H-pyrazole-4-carboxamide]: over 7.30; `NC(=O)c1c(-c2ccncc2)n[nH]c1NC(=O)CCc1ccc(Cl)s1` [Example 15, 5-(3-(5-Chlorothiophen-2-yl)propanamido)-3-(pyridin-4-y1)-1H-pyrazole-4-carboxamide]: 6.30 to 7.00.
As to `Cc1cnncc1-c1n[nH]c(NC(=O)CCc2ccc(F)nc2)c1C(N)=O` [Example 16, 5-(3-(6-Fluoropyridin-3-yl)propanamido)-3-(5-methylpyridazin-4-yl)-1H-pyrazole-4-carboxamide], the negative logarithm of the IC50 (pIC50) is under 6.00.
Next, `Cc1cnncc1-c1n[nH]c(NC(=O)CCc2ccc(Cl)c(F)c2)c1C(N)=O` [Example 17, 5-(3-(4-Chloro-3-fluorophenyl)propanamido)-3-(5-methylpyridazin-4-y1)-1H-pyrazole-4-carboxamide]: 6.00 to 6.30; `CNC(=O)c1c(-c2ccnnc2)n[nH]c1NC(=O)CCc1ccc(F)nc1` [Example 18, 5-(3-(6-Fluoropyridin-3-yl)propanamido)-N-methyl-3-(pyridazin-4-y1)-1H-pyrazole-4-carboxamide]: under 6.00.
Next, `NC(=O)c1c(-c2ccnnc2)n[nH]c1NC(=O)CCc1ccc(F)nc1` [Example 19, 5-(3-(6-Fluoropyridin-3-yl)propanamido)-3-(pyridazin-4-yl)-1H-pyrazole-4-carboxamide]: under 6.00; `NC(=O)c1c(-c2ccnnc2)n[nH]c1NC(=O)CCc1cnc(Cl)c(F)c1` [Example 20, 5-(3-(6-Chloro-5-fluoropyridin-3-yl)propanamido)-3-(pyridazin-4-y1)-1H-pyrazole-4-carboxamide]: 6.30 to 7.00; `NC(=O)c1c(-c2ccnnc2)n[nH]c1NC(=O)CCc1ccc(Cl)c(F)c1` [Example 21, 5-(3-(4-Chloro-3-fluorophenyl)propanamido)-3-(pyridazin-4-yl)-1H-pyrazole-4-carboxamide]: 7.00 to 7.29.
As for `NC(=O)c1c(-c2ccncc2)n[nH]c1NC(=O)CCc1ccc(F)nc1` [Example 22, 5-(3-(6-Fluoropyridin-3-yl)propanamido)-3-(pyridin-4-yl)-1H-pyrazole-4-carboxamide], the pIC50 was 6.00 to 6.30.
The figure for `NC(=O)c1c(-c2ccncc2)n[nH]c1NC(=O)CCc1ccc(C(F)(F)F)cc1` [Example 23, 3-(Pyridin-4-y1)-5-(3-(4-(trifluoromethyl)phenyl)propanamido)-1H-pyrazole-4-carboxamide] is 6.30 to 7.00; for `CNC(=O)c1c(-c2ccncc2)n[nH]c1NC(=O)CCc1ccc(Cl)cc1` [Example 24, 3-(3-(4-chlorophenyl)propanamido)-N-methyl-5-(pyridin-4-yl)-1H-pyrazole-4-carboxamide] it is 6.30 to 7.00.
Regarding `O=C1NCN(C(=O)CCc2ccc(Cl)cc2)c2[nH]nc(-c3ccncc3)c21` [Example 25, 7-(3-(4-Chlorophenyl)propanoyl)-3-(pyridin-4-yl)-1,5,6,7-tetrahydro-4H-pyrazolo[3,4-d]pyrimidin-4-one], the pIC50 was 6.30 to 7.00.
The figure for `O=C1NCN(C(=O)CCc2ccc(Cl)c(F)c2)c2[nH]nc(-c3ccncc3)c21` [Example 26, 7-(3-(4-Chloro-3-fluorophenyl)propanoy1)-3-(pyridin-4-y1)-1,5,6,7-tetrahydro-4H-pyrazolo[3,4-d]pyrimidin-4-one] is 6.30 to 7.00.
